Laboratory results from ChEMBL document CHEMBL4251596, “Hetero-Diels-Alder reactions of novel 3-triazolyl-nitrosoalkenes as an approach to functionalized 1,2,3-triazoles with antibacterial profile” (Eur J Med Chem, 2018).
Converted amounts (≈) assume the structure as drawn. The source made the active and inactive calls. The rule behind the calls is not given here.

Legend:
Enterococcus faecalis = experiment: Antibacterial activity against Enterococcus faecalis ATCC 29212 assessed as diameter of inhibition at 30 ug/disk after 24 hrs by disk diffusion assay (reference value: 0 mm); type: functional; settings: ATCC 29212, 24 h, read-out: DIZ
Staphylococcus aureus [1] = experiment: Antibacterial activity against Staphylococcus aureus ATCC 25923 assessed as diameter of inhibition at 30 ug/disk after 24 hrs by disk diffusion assay (reference value: 0 mm); type: functional; settings: ATCC 25923, 24 h, read-out: DIZ
[2] = tested on: Staphylococcus epidermidis; experiment: Antibacterial activity against Staphylococcus epidermidis ATCC 12228 assessed as diameter of inhibition at 30 ug/disk after 24 hrs by disk diffusion assay (reference value: 0 mm); type: functional; settings: ATCC 12228, 24 h, read-out: DIZ
Staphylococcus simulans [3] = experiment: Antibacterial activity against Staphylococcus simulans ATCC 27851 assessed as diameter of inhibition at 30 ug/disk after 24 hrs by disk diffusion assay (reference value: 0 mm); type: functional; settings: ATCC 27851, 24 h, read-out: DIZ
Staphylococcus aureus [4] = experiment: Antibacterial activity against methicillin-resistant Staphylococcus aureus BMB9393 assessed as diameter of inhibition at 30 ug/disk after 24 hrs by disk diffusion assay (reference value: 0 mm); type: functional; settings: BMB9393, 24 h, read-out: DIZ
Enterobacter cloacae = experiment: Antibacterial activity against Enterobacter cloacae ATCC 23355 assessed as diameter of inhibition at 30 ug/disk after 24 hrs by disk diffusion assay (reference value: 0 mm); type: functional; settings: ATCC 23355, 24 h, read-out: DIZ
Pseudomonas aeruginosa = experiment: Antibacterial activity against Pseudomonas aeruginosa ATCC 27853 assessed as diameter of inhibition at 30 ug/disk after 24 hrs by disk diffusion assay (reference value: 0 mm); type: functional; settings: ATCC 27853, 24 h, read-out: DIZ
Proteus mirabilis = experiment: Antibacterial activity against Proteus mirabilis ATCC 15290 assessed as diameter of inhibition at 30 ug/disk after 24 hrs by disk diffusion assay (reference value: 0 mm); type: functional; settings: ATCC 15290, 24 h, read-out: DIZ
Serratia marcescens = experiment: Antibacterial activity against Serratia marcescens ATCC 14756 assessed as diameter of inhibition at 30 ug/disk after 24 hrs by disk diffusion assay (reference value: 0 mm); type: functional; settings: ATCC 14756, 24 h, read-out: DIZ
Klebsiella pneumoniae = experiment: Antibacterial activity against Klebsiella pneumoniae ATCC 4352 assessed as diameter of inhibition at 30 ug/disk after 24 hrs by disk diffusion assay (reference value: 0 mm); type: functional; settings: ATCC 4352, 24 h, read-out: DIZ
Staphylococcus simulans [5] = experiment: Antibacterial activity against Staphylococcus simulans ATCC 27851 after 24 hrs by microdilution assay; type: functional; settings: ATCC 27851, 24 h
Staphylococcus aureus [6] = experiment: Antibiofilm activity against methicillin-resistant Staphylococcus aureus BMB9393 at 1/2 and 1/4 MIC after 24 hrs by crystal violet based assay; type: functional
Erythrocyte = experiment: (§1) Hemolytic activity in human erythrocytes at 10 to 200 ug/ml after 3 hrs relative to control; type: ADME, cell-based; settings: erythrocyte, 3 h
Staphylococcus aureus [7] = experiment: Antibacterial activity against Staphylococcus aureus ATCC 25923 after 24 hrs by microdilution assay; type: functional; settings: ATCC 25923, 24 h
[8] = tested on: Staphylococcus epidermidis; experiment: Antibacterial activity against Staphylococcus epidermidis ATCC 12228 after 24 hrs by microdilution assay; type: functional; settings: ATCC 12228, 24 h
Staphylococcus aureus [9] = experiment: Antibacterial activity against methicillin-resistant Staphylococcus aureus BMB9393 after 24 hrs by microdilution assay; type: functional; settings: BMB9393, 24 h
[10] = as §1; type: ADME, cell-based, Erythrocyte; settings: erythrocytes, read-out: Activity
Staphylococcus aureus [11] = experiment: Antibacterial activity against methicillin-resistant Staphylococcus aureus BMB9393 at 1/2 and 1/4 MIC after 24 hrs; type: functional, organism-based
Staphylococcus aureus [12] = experiment: Selectivity index, ratio of MIC for antibacterial activity against methicillin-resistant Staphylococcus aureus BMB9393 to MIC for antibacterial activity against Staphylococcus aureus ATCC 25923; type: functional
[13] = Selectivity index, ratio of MIC for antibacterial activity against methicillin-resistant Staphylococcus aureus BMB9393 to MIC for antibacterial activity against Staphylococcus epidermidis ATCC 12228; type: functional
[14] = Selectivity index, ratio of MIC for antibacterial activity against methicillin-resistant Staphylococcus aureus BMB9393 to MIC for antibacterial activity against Staphylococcus simulans ATCC 27851; type: functional

| SMILES | zone of inhibition at 30 µg/disc (Enterococcus faecalis) | zone of inhibition at 30 µg/disc (Staphylococcus aureus [1]) | zone of inhibition at 30 µg/disc [2] | zone of inhibition at 30 µg/disc (Staphylococcus simulans [3]) | zone of inhibition at 30 µg/disc (Staphylococcus aureus [4]) | zone of inhibition at 30 µg/disc (Enterobacter cloacae) | zone of inhibition at 30 µg/disc (Pseudomonas aeruginosa) | zone of inhibition at 30 µg/disc (Proteus mirabilis) | zone of inhibition at 30 µg/disc (Serratia marcescens) | zone of inhibition at 30 µg/disc (Klebsiella pneumoniae) | Activity (Erythrocyte) | also measured |
| --- | --- | --- | --- | --- | --- | --- | --- | --- | --- | --- | --- | --- |
| O/N=C(/CO/N=C(\Cc1c[nH]c2ccccc12)c1cn(-c2ccc(Cl)cc2)nn1)c1cn(-c2ccc(Cl)cc2)nn1 | 0 mm | 0 mm | 0 mm | 0 mm | 0 mm | 0 mm | 0 mm | 0 mm | 0 mm | 0 mm |  |  |
| CN[C@H](CC(C)C)C(=O)N[C@H]1C(=O)N[C@@H](CC(N)=O)C(=O)N[C@H]2C(=O)N[C@H]3C(=O)N[C@H](C(=O)N[C@H](C(=O)O)c4cc(O)cc(O)c4-c4cc3ccc4O)[C@H](O)c3ccc(c(Cl)c3)Oc3cc2cc(c3O[C@@H]2O[C@H](CO)[C@@H](O)[C@H](O)[C@H]2O[C@H]2C[C@](C)(N)[C@H](O)[C@H](C)O2)Oc2ccc(cc2Cl)[C@H]1O [VANCOMYCIN] | 18 mm | 15 mm | 17 mm | 20 mm | 13 mm |  |  |  |  |  | Non-Toxic | MIC (Staphylococcus simulans [5]): 1 µg/mL (≈ 0.69 µM); Activity (Staphylococcus aureus [6]): Active |
| O/N=C(\Cc1ccc[nH]1)c1cn(-c2ccccc2)nn1 | 0 mm | 0 mm | 0 mm | 0 mm | 0 mm | 0 mm | 0 mm | 0 mm | 0 mm | 0 mm |  |  |
| COc1ccc(-n2cc(/C(Cc3ccc[nH]3)=N/O)nn2)cc1 | 0 mm | 0 mm | 0 mm | 0 mm | 0 mm | 0 mm | 0 mm | 0 mm | 0 mm | 0 mm |  |  |
| O=[N+]([O-])c1ccc(-n2cc(/C(Cc3ccc[nH]3)=N/O)nn2)cc1 | 0 mm | 0 mm | 0 mm | 0 mm | 0 mm | 0 mm | 0 mm | 0 mm | 0 mm | 0 mm |  |  |
| O=C(O)c1cn(C2CC2)c2cc(N3CCNCC3)c(F)cc2c1=O [CIPROFLOXACIN] |  |  |  |  |  |  | 37 mm | 39 mm | 29 mm | 28 mm | Non-Toxic |  |
| CCC(CC)(c1ccc[nH]1)c1ccc(C/C(=N\O)c2cn(-c3ccc(Cl)cc3)nn2)[nH]1 | 0 mm | 11 mm | 12 mm | 10 mm | 8 mm | 0 mm | 0 mm | 0 mm | 0 mm | 0 mm |  | MIC (Staphylococcus aureus [7]): 32 µg/mL (≈ 73.2 µM); MIC [8]: 32 µg/mL (≈ 73.2 µM); MIC (Staphylococcus simulans [5]): 32 µg/mL (≈ 73.2 µM); MIC (Staphylococcus aureus [9]): 256 µg/mL (≈ 586 µM); Activity (Staphylococcus aureus [6]): 73 - 76%; hemolysis at 3 h [10]: < 10%; Activity (Staphylococcus aureus [11]): Active; Selectivity Index (Staphylococcus aureus [12]): 8; Selectivity Index [13]: 8; Selectivity Index [14]: 8 |
| O/N=C(\Cc1ccc[nH]1)c1cn(-c2ccc(Cl)cc2)nn1 | 0 mm | 0 mm | 0 mm | 0 mm | 0 mm | 0 mm | 0 mm | 0 mm | 0 mm | 0 mm |  |  |
| CCC(CC)(c1ccc(C/C(=N\O)c2cn(-c3ccc(Cl)cc3)nn2)[nH]1)c1ccc(C/C(=N\O)c2cn(-c3ccc(Cl)cc3)nn2)[nH]1 | 0 mm | 0 mm | 0 mm | 0 mm | 0 mm | 0 mm | 0 mm | 0 mm | 0 mm | 0 mm |  |  |
| CC1(C)S[C@@H]2[C@H](NC(=O)Cc3ccccc3)C(=O)N2[C@H]1C(=O)O [PENICILLIN G] |  |  |  |  |  |  |  |  |  |  | Non-Toxic |  |
